Experiment [1] has as its target T1, Drosophila Smo CRD (Smoothened) (Drosophila melanogaster, UniProt P91682).
T1 sequence (P91682 85-202): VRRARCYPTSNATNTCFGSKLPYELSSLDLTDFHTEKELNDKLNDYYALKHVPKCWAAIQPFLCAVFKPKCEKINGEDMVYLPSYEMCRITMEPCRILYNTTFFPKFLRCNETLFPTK
As to the kind of experiment: Bio-Layer Interferometry. The class given is binding. A general note: In BLI a coated tip is dipped into the sample, and binding shifts an interference pattern.

The target of experiment [2] is T2, human Smo CRD (Smoothened) (Homo sapiens, UniProt Q99835).
T2 sequence (Q99835 65-177): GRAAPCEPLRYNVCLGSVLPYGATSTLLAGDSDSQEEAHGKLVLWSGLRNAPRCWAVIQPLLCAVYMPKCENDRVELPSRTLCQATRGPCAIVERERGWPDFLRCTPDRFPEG
As to the kind of experiment: Bio-Layer Interferometry. The class given is binding.

Here are results for 1 compound from publication PMC3890372 (Nature communications, 2013).

Usually Kd stands for a measure of binding affinity in units of concentration. In the case of `CCCC1O[C@@H]2C[C@H]3[C@@H]4CCC5=CC(=O)C=C[C@]5(C)[C@H]4[C@@H](O)C[C@]3(C)[C@]2(C(=O)CO)O1` (some centres unmarked) [Bud, budesonide], the Kd came out at 120 ± 98 µM in experiment [1] and 52 ± 16 µM in experiment [2].
